This is an account of results in ChEMBL document CHEMBL5465560, “Selectivity Literature for EUbOPEN Chemogenomic Library” (2024).

For experiment [1], the target named is T1, Serine/threonine-protein kinase tousled-like 1 (Homo sapiens) (UniProt Q9UKI8).
T1 sequence (whole entry): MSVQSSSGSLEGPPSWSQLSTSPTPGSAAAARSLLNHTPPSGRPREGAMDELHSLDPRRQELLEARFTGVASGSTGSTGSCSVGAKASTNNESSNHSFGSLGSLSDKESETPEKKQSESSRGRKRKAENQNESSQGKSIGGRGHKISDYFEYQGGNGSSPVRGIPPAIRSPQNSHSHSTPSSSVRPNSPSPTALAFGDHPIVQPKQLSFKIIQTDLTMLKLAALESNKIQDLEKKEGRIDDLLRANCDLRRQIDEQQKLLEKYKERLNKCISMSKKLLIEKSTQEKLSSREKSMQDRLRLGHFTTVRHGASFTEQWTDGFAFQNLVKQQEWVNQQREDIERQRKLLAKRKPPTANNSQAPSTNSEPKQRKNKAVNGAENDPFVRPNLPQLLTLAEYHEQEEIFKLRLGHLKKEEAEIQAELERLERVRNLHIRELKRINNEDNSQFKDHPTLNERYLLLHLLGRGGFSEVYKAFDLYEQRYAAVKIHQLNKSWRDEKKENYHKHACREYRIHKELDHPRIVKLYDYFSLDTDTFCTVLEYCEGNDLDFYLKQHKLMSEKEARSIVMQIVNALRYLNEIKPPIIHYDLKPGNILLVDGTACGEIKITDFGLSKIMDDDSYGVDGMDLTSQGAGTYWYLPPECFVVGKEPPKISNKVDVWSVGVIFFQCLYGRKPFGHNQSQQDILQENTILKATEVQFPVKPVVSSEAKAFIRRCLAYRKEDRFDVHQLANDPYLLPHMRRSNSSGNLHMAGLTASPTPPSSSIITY
Briefly: Selectivity interaction (ActivX KiNativ screen (ex vivo kinase selectivity in human PBMCs)) EUB0001619a TLK1. The class given is cell-based. Conditions: PBMC, at 1 µM.

The test system of experiment [2] is eIF-2-alpha kinase GCN2 (Homo sapiens), Q9P2K8 [S808G]. Briefly: Selectivity interaction (KinomeScan (DiscoverX)) EUB0001619a EIF2AK4. Conditions: at 1 µM.
For experiment [3], the target named is Serine/threonine-protein kinase PAK 4 (Homo sapiens, UniProt O96013). The experiment is described as follows: Selectivity interaction (KinomeScan (DiscoverX)) EUB0000045b PAK4.
For experiment [4], the target named is Mitogen-activated protein kinase 9 (Homo sapiens, UniProt P45984). Briefly: Selectivity interaction (KinomeScan (DiscoverX)) EUB0000045b MAPK9.
Experiment [5] deals with Serine/threonine-protein kinase MRCK alpha (Homo sapiens) (UniProt Q5VT25). The experiment is described as follows: Selectivity interaction (ProQinase) EUB0000171b CDC42BPA.
Experiment [6] concerns the target T2, Activin receptor type-1 (Homo sapiens) (UniProt Q04771).
T2 sequence (whole entry): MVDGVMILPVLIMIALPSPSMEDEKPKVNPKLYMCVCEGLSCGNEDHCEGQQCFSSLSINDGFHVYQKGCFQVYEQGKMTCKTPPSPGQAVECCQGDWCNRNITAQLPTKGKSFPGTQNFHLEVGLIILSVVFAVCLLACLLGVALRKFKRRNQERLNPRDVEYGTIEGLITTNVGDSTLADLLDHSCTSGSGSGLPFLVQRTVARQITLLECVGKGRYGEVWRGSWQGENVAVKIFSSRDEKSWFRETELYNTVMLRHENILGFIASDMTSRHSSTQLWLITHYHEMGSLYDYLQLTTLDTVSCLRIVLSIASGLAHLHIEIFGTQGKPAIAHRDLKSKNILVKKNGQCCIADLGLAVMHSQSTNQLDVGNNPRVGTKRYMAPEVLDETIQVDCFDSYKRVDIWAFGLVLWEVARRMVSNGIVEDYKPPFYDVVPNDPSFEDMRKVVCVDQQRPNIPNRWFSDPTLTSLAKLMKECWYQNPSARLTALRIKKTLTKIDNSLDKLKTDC
Briefly: Selectivity interaction (Ambit KINOMEscan and KiNATiv profiling in Jurkat cells) EUB0000090b ACVR1. The class given is cell-based. Conditions: at 1 µM.

Experiment [7] concerns the target Dual specificity tyrosine-phosphorylation-regulated kinase 1A (Homo sapiens, UniProt Q13627). Briefly: Selectivity interaction (Enzymatic assay (Eurofins)) EUB0001049a DYRK1A.
In experiment [8] the target is Tyrosine-protein kinase ABL2 (Homo sapiens, UniProt P42684). Briefly: Selectivity interaction (KinomeScan (DiscoverX)) EUB0000092b ABL2. Conditions: at 10 µM.
Experiment [9] deals with T3, Serine/threonine-protein kinase BRSK2 (Homo sapiens) (UniProt Q8IWQ3).
T3 sequence (whole entry): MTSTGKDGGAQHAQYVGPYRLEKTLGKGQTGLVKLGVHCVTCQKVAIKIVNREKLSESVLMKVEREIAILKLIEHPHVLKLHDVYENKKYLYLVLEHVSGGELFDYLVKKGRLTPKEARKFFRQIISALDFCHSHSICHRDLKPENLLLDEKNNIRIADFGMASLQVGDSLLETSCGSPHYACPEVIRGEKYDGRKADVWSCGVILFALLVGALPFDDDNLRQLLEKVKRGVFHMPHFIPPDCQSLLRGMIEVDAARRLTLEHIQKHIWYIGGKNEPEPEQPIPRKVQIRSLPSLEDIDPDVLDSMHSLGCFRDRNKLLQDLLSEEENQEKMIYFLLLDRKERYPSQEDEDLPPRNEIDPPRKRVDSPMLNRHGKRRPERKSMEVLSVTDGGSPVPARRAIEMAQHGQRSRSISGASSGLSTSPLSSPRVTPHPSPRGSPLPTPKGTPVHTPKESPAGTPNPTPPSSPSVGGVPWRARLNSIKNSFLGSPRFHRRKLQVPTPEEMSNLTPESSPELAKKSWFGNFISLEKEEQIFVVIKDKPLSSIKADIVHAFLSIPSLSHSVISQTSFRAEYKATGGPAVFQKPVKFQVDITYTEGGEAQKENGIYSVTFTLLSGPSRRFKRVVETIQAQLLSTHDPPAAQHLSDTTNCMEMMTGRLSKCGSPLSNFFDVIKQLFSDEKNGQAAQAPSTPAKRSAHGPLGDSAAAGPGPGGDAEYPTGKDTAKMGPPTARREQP
Briefly: Selectivity interaction (KinomeScan (DiscoverX)) EUB0000092b BRSK2. The settings on record: at 10 µM.

Chain of Serine/threonine-protein kinase PAK 4 (O96013 whole entry, looked up): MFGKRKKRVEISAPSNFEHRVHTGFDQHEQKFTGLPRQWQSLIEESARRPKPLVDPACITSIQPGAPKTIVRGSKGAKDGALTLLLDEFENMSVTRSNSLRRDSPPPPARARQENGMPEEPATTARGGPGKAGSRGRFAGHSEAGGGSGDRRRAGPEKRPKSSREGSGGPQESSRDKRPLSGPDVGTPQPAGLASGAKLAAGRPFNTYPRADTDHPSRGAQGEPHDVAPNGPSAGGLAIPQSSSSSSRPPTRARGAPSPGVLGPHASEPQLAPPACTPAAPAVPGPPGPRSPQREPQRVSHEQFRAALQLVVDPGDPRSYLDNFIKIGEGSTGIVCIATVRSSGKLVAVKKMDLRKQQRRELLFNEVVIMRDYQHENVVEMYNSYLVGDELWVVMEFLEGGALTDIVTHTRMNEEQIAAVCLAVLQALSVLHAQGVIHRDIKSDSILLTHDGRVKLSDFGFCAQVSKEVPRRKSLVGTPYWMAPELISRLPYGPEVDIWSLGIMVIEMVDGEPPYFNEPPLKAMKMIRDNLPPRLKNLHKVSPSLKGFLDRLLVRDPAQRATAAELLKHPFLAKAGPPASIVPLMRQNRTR
Chain of Mitogen-activated protein kinase 9 (P45984 whole entry, looked up): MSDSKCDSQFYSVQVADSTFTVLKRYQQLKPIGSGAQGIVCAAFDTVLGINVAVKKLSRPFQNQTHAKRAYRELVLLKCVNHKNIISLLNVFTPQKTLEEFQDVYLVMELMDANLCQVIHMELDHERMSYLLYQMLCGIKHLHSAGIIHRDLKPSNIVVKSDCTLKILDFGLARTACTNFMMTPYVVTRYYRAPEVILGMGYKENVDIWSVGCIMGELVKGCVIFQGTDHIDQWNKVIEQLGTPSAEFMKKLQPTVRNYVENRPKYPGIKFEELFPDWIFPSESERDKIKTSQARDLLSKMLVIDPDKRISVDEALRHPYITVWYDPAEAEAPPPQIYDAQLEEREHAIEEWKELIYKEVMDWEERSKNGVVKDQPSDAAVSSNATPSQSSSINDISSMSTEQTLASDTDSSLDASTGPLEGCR
Chain of Serine/threonine-protein kinase MRCK alpha (Homo sapiens) (Q5VT25 whole entry): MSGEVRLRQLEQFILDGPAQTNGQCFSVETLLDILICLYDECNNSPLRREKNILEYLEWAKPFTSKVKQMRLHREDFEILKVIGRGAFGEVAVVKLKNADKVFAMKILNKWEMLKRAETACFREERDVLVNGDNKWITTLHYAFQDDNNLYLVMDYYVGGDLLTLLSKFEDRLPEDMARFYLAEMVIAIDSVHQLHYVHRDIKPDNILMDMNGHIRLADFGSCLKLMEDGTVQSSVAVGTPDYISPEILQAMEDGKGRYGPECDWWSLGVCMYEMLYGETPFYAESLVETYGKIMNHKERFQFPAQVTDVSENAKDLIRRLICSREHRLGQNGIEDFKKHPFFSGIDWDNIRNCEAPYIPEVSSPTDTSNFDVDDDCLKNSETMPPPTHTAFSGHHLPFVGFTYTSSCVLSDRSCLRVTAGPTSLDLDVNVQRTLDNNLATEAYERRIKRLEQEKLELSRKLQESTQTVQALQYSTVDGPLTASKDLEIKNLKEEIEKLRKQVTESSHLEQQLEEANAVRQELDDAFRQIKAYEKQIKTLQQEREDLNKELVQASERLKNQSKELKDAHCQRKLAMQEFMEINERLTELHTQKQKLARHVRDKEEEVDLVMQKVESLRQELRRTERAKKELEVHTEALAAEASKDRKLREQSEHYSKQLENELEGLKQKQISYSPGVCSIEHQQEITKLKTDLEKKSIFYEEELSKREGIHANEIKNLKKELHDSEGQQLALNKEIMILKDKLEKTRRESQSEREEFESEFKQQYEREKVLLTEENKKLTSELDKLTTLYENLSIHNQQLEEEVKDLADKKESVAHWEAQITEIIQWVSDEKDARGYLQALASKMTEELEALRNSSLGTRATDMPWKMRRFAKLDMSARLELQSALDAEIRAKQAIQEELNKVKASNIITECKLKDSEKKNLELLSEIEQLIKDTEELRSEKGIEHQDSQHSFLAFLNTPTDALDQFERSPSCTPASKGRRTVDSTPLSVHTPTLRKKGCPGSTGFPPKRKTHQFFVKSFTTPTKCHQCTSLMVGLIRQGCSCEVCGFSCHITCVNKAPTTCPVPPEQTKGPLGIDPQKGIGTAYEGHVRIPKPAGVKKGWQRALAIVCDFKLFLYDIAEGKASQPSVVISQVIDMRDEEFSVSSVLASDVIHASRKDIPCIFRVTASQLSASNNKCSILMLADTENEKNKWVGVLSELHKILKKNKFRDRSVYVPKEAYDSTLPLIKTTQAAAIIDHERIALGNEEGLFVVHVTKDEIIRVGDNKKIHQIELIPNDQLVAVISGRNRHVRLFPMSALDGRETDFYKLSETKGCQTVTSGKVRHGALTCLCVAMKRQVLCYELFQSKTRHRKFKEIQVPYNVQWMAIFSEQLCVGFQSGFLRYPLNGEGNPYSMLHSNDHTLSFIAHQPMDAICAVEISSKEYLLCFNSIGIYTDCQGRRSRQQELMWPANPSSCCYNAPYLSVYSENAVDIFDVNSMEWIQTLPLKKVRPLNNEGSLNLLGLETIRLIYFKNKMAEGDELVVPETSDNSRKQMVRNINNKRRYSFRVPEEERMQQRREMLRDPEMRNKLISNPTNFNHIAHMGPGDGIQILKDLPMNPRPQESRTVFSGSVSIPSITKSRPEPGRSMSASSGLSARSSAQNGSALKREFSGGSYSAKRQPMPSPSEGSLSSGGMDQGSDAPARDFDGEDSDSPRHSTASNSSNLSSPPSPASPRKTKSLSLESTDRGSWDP
Chain of Tyrosine-protein kinase ABL2 (P42684 whole entry): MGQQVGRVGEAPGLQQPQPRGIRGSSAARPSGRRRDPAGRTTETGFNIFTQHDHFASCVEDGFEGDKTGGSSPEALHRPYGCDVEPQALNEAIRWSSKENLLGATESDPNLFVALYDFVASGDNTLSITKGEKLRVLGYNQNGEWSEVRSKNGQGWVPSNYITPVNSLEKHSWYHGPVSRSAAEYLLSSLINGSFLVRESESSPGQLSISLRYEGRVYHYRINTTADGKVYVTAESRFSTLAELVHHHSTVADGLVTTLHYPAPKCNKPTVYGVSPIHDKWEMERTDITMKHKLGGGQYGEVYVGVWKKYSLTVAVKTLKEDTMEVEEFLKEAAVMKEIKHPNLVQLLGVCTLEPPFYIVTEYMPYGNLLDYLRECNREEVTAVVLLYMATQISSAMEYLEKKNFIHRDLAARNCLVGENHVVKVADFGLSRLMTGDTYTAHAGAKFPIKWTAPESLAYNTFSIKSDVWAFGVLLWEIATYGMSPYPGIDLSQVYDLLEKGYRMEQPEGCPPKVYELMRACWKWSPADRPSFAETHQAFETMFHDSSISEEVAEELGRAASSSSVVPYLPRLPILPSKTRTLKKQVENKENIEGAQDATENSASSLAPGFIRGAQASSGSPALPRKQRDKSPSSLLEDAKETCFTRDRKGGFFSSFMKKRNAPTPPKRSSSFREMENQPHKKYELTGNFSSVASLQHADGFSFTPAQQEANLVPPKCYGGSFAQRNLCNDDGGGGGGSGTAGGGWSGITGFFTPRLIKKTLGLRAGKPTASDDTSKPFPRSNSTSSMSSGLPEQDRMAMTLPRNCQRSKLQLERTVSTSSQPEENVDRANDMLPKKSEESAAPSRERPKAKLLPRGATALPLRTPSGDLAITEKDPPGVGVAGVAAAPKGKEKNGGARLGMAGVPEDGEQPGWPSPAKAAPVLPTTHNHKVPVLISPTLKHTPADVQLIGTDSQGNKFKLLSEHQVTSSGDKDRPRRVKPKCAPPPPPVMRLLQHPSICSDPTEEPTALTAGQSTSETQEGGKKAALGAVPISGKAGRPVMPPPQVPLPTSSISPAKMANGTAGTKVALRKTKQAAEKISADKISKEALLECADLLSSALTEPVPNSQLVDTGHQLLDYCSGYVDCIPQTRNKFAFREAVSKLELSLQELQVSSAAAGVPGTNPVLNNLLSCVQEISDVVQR

`N#Cc1cccc(-c2c[nH]c3ncnc(N4CCOCC4)c23)c1`: the % of inhibition in experiment [1] came out at 6%. In experiment [2], this molecule gave a % of control of 100%.

In the case of `C=CC(=O)Nc1cc(-n2c(=O)ccc3cnc4ccc(-c5ccc(NS(C)(=O)=O)cc5)cc4c32)ccc1C`, the % of control in experiment [3] (at 1 µM) stood at 100%; in [3] (at 10 µM) it was 100%; in experiment [4] (at 1 µM), 100%; in experiment [4] (at 10 µM), 24%.

For the molecule `C=CC(=O)Nc1cccc(C(=O)Nc2ccc(Nc3cc(-c4[nH]c(SC)nc4C)ccn3)cc2)c1`, the % of control in experiment [5] (at 1 µM) came out at 102%; in [5] (at 5 µM) it was 91%.

`CN(C)C/C=C/C(=O)Nc1ccc(C(=O)N2CCCC(Nc3ncc(Cl)c(-c4c[nH]c5ccccc45)n3)C2)cc1` (configuration not stated) displayed a % of control in experiment [6] of 97%.

Take `COc1cc(Nc2nc(C)cc(-c3cnn4nc(OC)ccc34)n2)cc(C(F)(F)F)c1`: the IC50 in experiment [7] was above 10 µM.

`CCC(=O)N1CCN(c2ccc(-n3c(=O)ccc4cnc5ccc(-c6cnc7ccccc7c6)cc5c43)cc2C(F)(F)F)CC1`: the % of control in experiment [8] was determined as 99%; in experiment [9], 76%.
